Consider 23 molecules from patent US9320739B2 (AMBIT BIOSCIENCES CORPORATION, priority 2008, dated 2016).

For one test, the system named is panel of 290 distinct kinases (321 in the larger panel), excluding mutant variants. The following applies: asterisk: panel of 321 distinct kinases.
Method: Competition binding assays used herein were developed, validated and performed as described in Fabian et al., Nature Biotechnology 2005, 23, 329-336. […] The liganded beads were blocked with excess biotin and washed with blocking buffer (SeaBlock (Pierce), 1% BSA, 0.05% Tween 20, 1 mM DTT) to remove unbound ligand and to reduce non-specific binding. […] Test compounds were prepared as 100× stocks in DMSO and rapidly diluted into the aqueous environment. DMSO was added to control assays lacking a test compound. Primary screen interactions were performed in polypropylene 384-well plates in a final volume of 34 μL, while Kd determinations were performed in polystyrene 96-well plates in a final volume of 135 pt. […] The kinase concentration in the eluates was measured by quantitative PCR. Each kinase was tested individually against each compound. Kds were determined using eleven serial threefold dilutions. A selectivity score, which is a quantitative measure of selectivity of a compound against a panel of enzymes, may be calculated for a compound by dividing the number of enzymes for which a compound meets a set criteria, (for example, a binding constant of 100 nM or less), by the total number of enzymes tested. […] (Note, for those compounds tested in a larger kinase panel, as indicated by an asterisk (*) next to the S35 score, the divisor is 321 (i.e. the larger panel contains 321 distinct kinases, excluding mutant variants.)).
Consider `COCCOc1cc2ncnc(Oc3cccc(NC(=O)Nc4cc(C(F)(F)F)nn4-c4ccccc4)c3)c2cc1OC` [Ex 221, 1-{3-[6-methoxy-7-(2-methoxyethoxy)quinazolin-4-yloxy]phenyl}-3-[1-phenyl-3-(trifluoromethyl)-1H-pyrazol-5-yl]urea], for which the S35 entry is recorded as “C * (0.20 < C ≦ 0.40)”.

Staying with this test, now noted: asterisk: panel of 321 distinct kinases; fraction of kinases inhibited 65% or greater.
As to `COc1cc2ncnc(Sc3cccc(NC(=O)Nc4cc(C(F)(F)F)n(C)n4)c3)c2cc1OC` [Ex 194, 1-[3-(6,7-dimethoxyquinazolin-4-ylthio)phenyl]-3-[1-methyl-5-(trifluoromethyl)-1H-pyrazol-3-yl]urea], the S35 result is listed as “C* (0.20 < C ≦ 0.40)”.
`COc1cc2ncnc(Sc3cccc(NC(=O)Nc4cc(C(F)(F)F)n(-c5ccccc5)n4)c3)c2cc1OC` [Ex 170, 1-[3-(6,7-dimethoxyquinazolin-4-ylthio)phenyl]-3-[1-phenyl-5-(trifluoromethyl)-1H-pyrazol-3-yl]urea]: the S35 entry was “B* (0.10 < B ≦ 0.20)”.

The same test, now with this note: no asterisk: panel of 290 distinct kinases.
As to `COc1cc2ncnc(Sc3cccc(NC(=O)Nc4cc(C5(C(F)(F)F)CC5)nn4-c4ccc(C)cc4)c3)c2cc1OC` [Ex 347, 1-(3-(6,7-dimethoxyquinazolin-4-ylthio)phenyl)-3-(1-p-tolyl-3-(1-(trifluoromethyl)cyclopropyl)-1H-pyrazol-5-yl)urea], the S35 entry is recorded as “D (D > 0.40)”.
On to `COc1cc2ncnc(Oc3cccc(NC(=O)Nc4cc(C5(C(F)(F)F)CC5)nn4-c4ccc(C)cc4)c3)c2cc1OC` [Ex 346, 1-(3-(6,7-dimethoxyquinazolin-4-yloxy)phenyl)-3-(1-p-tolyl-3-(1-(trifluoromethyl)cyclopropyl)-1H-pyrazol-5-yl)urea], for which the S35 entry is “D (D > 0.40)”.
Consider `COc1cc2ncnc(Sc3cccc(NC(=O)Nc4cc(C(C)(C)C)nn4-c4ccccc4C)c3)c2cc1OC` [Ex 343, 1-(3-tert-butyl-1-o-tolyl-1H-pyrazol-5-yl)-3-(3-(6,7-dimethoxyquinazolin-4-ylthio)phenyl)urea], for which the S35 entry is recorded as “C (0.20 < C ≦ 0.40)”.
As for `COc1cc2ncnc(Oc3cccc(NC(=O)Nc4cc(C(C)(C)C)nn4-c4ccncc4)c3)c2cc1OC` [Ex 336, 1-(3-tert-butyl-1-(pyridin-4-yl)-1H-pyrazol-5-yl)-3-(3-(6,7-dimethoxyquinazolin-4-yloxy)phenyl)urea], the S35 entry is “D (D > 0.40)”.
Regarding `COc1cc2ncnc(Sc3cccc(NC(=O)Nc4cc(C(C)(C)C)nn4-c4ccccc4Cl)c3)c2cc1OC` [Ex 341, 1-(3-tert-butyl-1-(2-chlorophenyl)-1H-pyrazol-5-yl)-3-(3-(6,7-dimethoxyquinazolin-4-ylthio)phenyl)urea], the S35 entry is “C (0.20 < C ≦ 0.40)”.
On the same count and under the same terms, for `COc1cc2ncnc(Oc3cccc(NC(=O)Nc4cc(C(C)C)nn4-c4cccnc4)c3)c2cc1OC` [Ex 350, 1-(3-(6,7-dimethoxyquinazolin-4-yloxy)phenyl)-3-(3-isopropyl-1-(pyridin-3-yl)-1H-pyrazol-5-yl)urea] the value was “D (D > 0.40)”; for `COc1ccc(-n2nc(C(C)(F)F)cc2NC(=O)Nc2cccc(Oc3ncnc4cc(OC)c(OC)cc34)c2)cc1` [Ex 315, 1-(3-(1,1-difluoroethyl)-1-(4-methoxyphenyl)-1H-pyrazol-5-yl)-3-(3-(6,7-dimethoxyquinazolin-4-yloxy)phenyl)urea], “D (D > 0.40)”; for `COc1ccc(-n2nc(C(C)C)cc2NC(=O)Nc2cccc(Sc3ncnc4cc(OC)c(OC)cc34)c2)cc1` [Ex 349, 1-(3-(6,7-dimethoxyquinazolin-4-ylthio)phenyl)-3-(3-isopropyl-1-(4-methoxyphenyl)-1H-pyrazol-5-yl)urea], “C (0.20 < C ≦ 0.40)”.
On to `COc1cc2ncnc(Sc3cccc(NC(=O)Nc4cc(C(C)C)nn4-c4cccnc4)c3)c2cc1OC` [Ex 351, 1-(3-(6,7-dimethoxyquinazolin-4-ylthio)phenyl)-3-(3-isopropyl-1-(pyridin-3-yl)-1H-pyrazol-5-yl)urea], for which the S35 result is given as “C (0.20 < C ≦ 0.40)”.
Turning to `COc1cc2ncnc(Oc3cccc(NC(=O)Nc4cc(C(C)(C)C)nn4CC(C)C)c3)c2cc1OC` [Ex 332, 1-(3-tert-butyl-1-isobutyl-1H-pyrazol-5-yl)-3-(3-(6,7-dimethoxyquinazolin-4-yloxy)phenyl)urea], the S35 result is on record as “C (0.20 < C ≦ 0.40)”.
On the same count and under the same terms, for `COc1cc2ncnc(Oc3cccc(NC(=O)Nc4cc(C(C)(F)F)nn4-c4cccnc4)c3)c2cc1OC` [Ex 311, 1-(3-(1,1-difluoroethyl)-1-(pyridin-3-yl)-1H-pyrazol-5-yl)-3-(3-(6,7-dimethoxyquinazolin-4-yloxy)phenyl)urea] the value was “C (0.20 < C ≦ 0.40)”; for `COc1ccc(-n2nc(C(C)C)cc2NC(=O)Nc2cccc(Oc3ncnc4cc(OC)c(OC)cc34)c2)cc1` [Ex 348, 1-(3-(6,7-dimethoxyquinazolin-4-yloxy)phenyl)-3-(3-isopropyl-1-(4-methoxyphenyl)-1H-pyrazol-5-yl)urea], “D (D > 0.40)”; for `COc1cc2ncnc(Oc3cccc(NC(=O)Nc4cc(C(C)(C)C)nn4-c4cncc(F)c4)c3)c2cc1OC` [Ex 326, 1-(3-tert-butyl-1-(5-fluoropyridin-3-yl)-1H-pyrazol-5-yl)-3-(3-(6,7-dimethoxyquinazolin-4-yloxy)phenyl)urea], “D (D > 0.40)”.
The same measure, in the same setting: for `COc1cc2ncnc(Oc3cccc(NC(=O)Nc4cc(C(C)C)nn4-c4ccccc4)c3)c2cc1OC` [Ex 324, 1-(3-(6,7-dimethoxyquinazolin-4-yloxy)phenyl)-3-(3-isopropyl-1-phenyl-1H-pyrazol-5-yl)urea] the value was “D (D > 0.40)”; for `COc1cc2ncnc(Sc3cccc(NC(=O)Nc4cc(C(C)C)nn4-c4ccccc4)c3)c2cc1OC` [Ex 325, 1-(3-(6,7-dimethoxyquinazolin-4-ylthio)phenyl)-3-(3-isopropyl-1-phenyl-1H-pyrazol-5-yl)urea], “C (0.20 < C ≦ 0.40)”.
As for `COc1cc2nc(Cl)nc(Oc3cccc(NC(=O)Nc4cc(C(C)(C)C)on4)c3)c2cc1OC` [Ex 310, 1-(5-tert-butylisoxazol-3-yl)-3-(3-(2-chloro-6,7-dimethoxyquinazolin-4-yloxy)phenyl)urea], the S35 result is “A (A ≦ 0.10)”.
On to `COc1cc2ncnc(Sc3cccc(NC(=O)Nc4cc(C(C)(C)C)nn4-c4cccnc4)c3)c2cc1OC` [Ex 323, 1-(3-tert-butyl-1-(pyridin-3-yl)-1H-pyrazol-5-yl)-3-(3-(6,7-dimethoxyquinazolin-4-ylthio)phenyl)urea], for which the S35 result is recorded as “D (D > 0.40)”.
Still for that read-out and setting: for `COc1cc2ncnc(Sc3cccc(NC(=O)Nc4cc(C(C)(C)C)nn4C(C)C)c3)c2cc1OC` [Ex 335, 1-(3-tert-butyl-1-isopropyl-1H-pyrazol-5-yl)-3-(3-(6,7-dimethoxyquinazolin-4-ylthio)phenyl)urea] the value was “C (0.20 < C ≦ 0.40)”.
In the case of `COc1cc2ncnc(Oc3cccc(NC(=O)Nc4cc(C(C)C)nn4-c4cncc(F)c4)c3)c2cc1OC` [Ex 314, 1-(3-(6,7-dimethoxyquinazolin-4-yloxy)phenyl)-3-(1-(5-fluoropyridin-3-yl)-3-isopropyl-1H-pyrazol-5-yl)urea], the S35 result is on record as “D (D > 0.40)”.

Still in this test, the particulars now being: no asterisk: panel of 290 distinct kinases; fraction of kinases inhibited 65% or greater.
In the case of `COc1cc2c(Sc3cccc(NC(=O)Nc4cc(C(C)(C)C)on4)c3)ncnc2cc1OCCN1CCN(CCO)CC1` [Ex 84, 1-(5-tert-butylisoxazol-3-yl)-3-(3-(7-(2-(4-(2-hydroxyethyl)piperazin-1-yl)ethoxy)-6-methoxyquinazolin-4-ylthio)phenyl)urea], the S35 result is “D (D > 0.40)”.
